System: 922993-354-T-J3-PDC complex spheroids, viability, % test/control
Experiment: Anticancer human tumor 922993-354-T-J3-PDC patient-derived endometrial carcinoma cell line growth inhibition [CLK]
Settings: for IC50: curve of first compound; for viability, T/C: stronger effect = lower value
Method in brief: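 Multi-cell-type spheroids combined patient-derived tumor cells with HUVEC endothelial cells and human mesenchymal stem cells. Paired agents were dosed in half-log steps down from about clinical Cmax, or from 10 microM where Cmax was unknown.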

[1] = second compound 0.0316 µM, first compound 0.0316 µM
[2] = second compound 0.0316 µM, first compound 0.1 µM
[3] = second compound 0.0316 µM, first compound 0.316 µM
[4] = second compound 0.0316 µM, first compound 1 µM
[5] = second compound 0.0316 µM, first compound 3.16 µM
[6] = second compound 0.0316 µM, first compound 10 µM
[7] = second compound 0.1 µM, first compound 0.0316 µM
[8] = second compound 0.1 µM, first compound 0.1 µM
[9] = second compound 0.1 µM, first compound 0.316 µM
[10] = second compound 0.1 µM, first compound 1 µM
[11] = second compound 0.1 µM, first compound 3.16 µM
[12] = second compound 0.1 µM, first compound 10 µM
[13] = second compound 0.316 µM, first compound 0.0316 µM
[14] = second compound 0.316 µM, first compound 0.1 µM
[15] = second compound 0.316 µM, first compound 0.316 µM
[16] = second compound 0.316 µM, first compound 1 µM
[17] = second compound 0.316 µM, first compound 3.16 µM
[18] = second compound 0.316 µM, first compound 10 µM
[19] = second compound 1 µM, first compound 0.0316 µM
[20] = second compound 1 µM, first compound 0.1 µM
[21] = second compound 1 µM, first compound 0.316 µM
[22] = second compound 1 µM, first compound 1 µM
[23] = second compound 1 µM, first compound 3.16 µM
[24] = second compound 1 µM, first compound 10 µM
[25] = second compound 3.16 µM, first compound 0.0316 µM
[26] = second compound 3.16 µM, first compound 0.1 µM
[27] = second compound 3.16 µM, first compound 0.316 µM
[28] = second compound 3.16 µM, first compound 1 µM
[29] = second compound 3.16 µM, first compound 3.16 µM
[30] = second compound 3.16 µM, first compound 10 µM
[31] = second compound 10 µM, first compound 0.0316 µM
[32] = second compound 10 µM, first compound 0.1 µM
[33] = second compound 10 µM, first compound 0.316 µM
[34] = second compound 10 µM, first compound 1 µM
[35] = second compound 10 µM, first compound 3.16 µM
[36] = second compound 10 µM, first compound 10 µM
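Further: spheroids exposed to the agents for 7 days before readout.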

COc1ccc([C@@H](O)c2cc(-c3ncnc4cc(N5CCOCC5)ccc34)c(F)cc2Cl)nn1 + CN1CCN(c2cc(C(=O)Nc3cc4cc(-c5cnn(C)c5)ccc4cn3)ccn2)CC1
IC50 (second compound 0.0316 µM): > 10 µM
IC50 (second compound 0.1 µM): > 10 µM
IC50 (second compound 0.316 µM): < 0.0316 µM
IC50 (second compound 1 µM): < 0.0316 µM
IC50 (second compound 3.16 µM): < 0.0316 µM
IC50 (second compound 10 µM): < 0.0316 µM
viability, T/C [1]: 112%
viability, T/C [2]: 131%
viability, T/C [3]: 123%
viability, T/C [4]: 122%
viability, T/C [5]: 112%
viability, T/C [6]: 85.4%
viability, T/C [7]: 87.8%
viability, T/C [8]: 87.7%
viability, T/C [9]: 85.6%
viability, T/C [10]: 91.5%
viability, T/C [11]: 90.2%
viability, T/C [12]: 76.1%
viability, T/C [13]: 35.9%
viability, T/C [14]: 33.1%
viability, T/C [15]: 30.8%
viability, T/C [16]: 25.4%
viability, T/C [17]: 24.9%
viability, T/C [18]: 24.7%
viability, T/C [19]: 0.11%
viability, T/C [20]: 0.13%
viability, T/C [21]: 0.13%
viability, T/C [22]: 0.11%
viability, T/C [23]: 0.22%
viability, T/C [24]: 1.37%
viability, T/C [25]: 0.13%
viability, T/C [26]: 0.14%
viability, T/C [27]: 1.21%
viability, T/C [28]: 1.06%
viability, T/C [29]: 2.69%
viability, T/C [30]: 1.48%
viability, T/C [31]: 0.14%
viability, T/C [32]: 2.05%
viability, T/C [33]: 1.47%
viability, T/C [34]: 0.25%
viability, T/C [35]: 1.52%
viability, T/C [36]: 2.52%

C=CC(=O)N1CCN(c2nc(=O)n(-c3c(C)ccnc3C(C)C)c3nc(-c4c(O)cccc4F)c(F)cc23)C(C)C1 (stereo not drawn) + CNC(=O)c1ccc(Nc2nc(OC3CCCC3)c3c(-c4ccc5nc(C)oc5c4)c[nH]c3n2)c(OC)c1
IC50 (second compound 0.0316 µM): > 10 µM
IC50 (second compound 0.1 µM): > 10 µM
IC50 (second compound 0.316 µM): > 10 µM
IC50 (second compound 1 µM): < 0.0316 µM
IC50 (second compound 3.16 µM): < 0.0316 µM
IC50 (second compound 10 µM): < 0.0316 µM
viability, T/C [1]: 106%
viability, T/C [2]: 105%
viability, T/C [3]: 102%
viability, T/C [4]: 103%
viability, T/C [5]: 106%
viability, T/C [6]: 78.6%
viability, T/C [7]: 86.2%
viability, T/C [8]: 104%
viability, T/C [9]: 101%
viability, T/C [10]: 103%
viability, T/C [11]: 103%
viability, T/C [12]: 94.5%
viability, T/C [13]: 66.9%
viability, T/C [14]: 69%
viability, T/C [15]: 64%
viability, T/C [16]: 61.1%
viability, T/C [17]: 69.3%
viability, T/C [18]: 47.5%
viability, T/C [19]: 33.8%
viability, T/C [20]: 32.8%
viability, T/C [21]: 34.6%
viability, T/C [22]: 36.2%
viability, T/C [23]: 41.4%
viability, T/C [24]: 44.8%
viability, T/C [25]: 34.3%
viability, T/C [26]: 31.2%
viability, T/C [27]: 30.6%
viability, T/C [28]: 33.3%
viability, T/C [29]: 36.4%
viability, T/C [30]: 38.1%
viability, T/C [31]: 27.6%
viability, T/C [32]: 28.6%
viability, T/C [33]: 31.9%
viability, T/C [34]: 33%
viability, T/C [35]: 34.1%
viability, T/C [36]: 37.3%

CCCS(=O)(=O)Nc1ccc(F)c(C(=O)c2c[nH]c3ncc(-c4ccc(Cl)cc4)cc23)c1F + CNC(=O)c1ccc(Nc2nc(OC3CCCC3)c3c(-c4ccc5nc(C)oc5c4)c[nH]c3n2)c(OC)c1
IC50 (second compound 0.0316 µM): > 10 µM
IC50 (second compound 0.1 µM): > 10 µM
IC50 (second compound 0.316 µM): 0.65 µM
IC50 (second compound 1 µM): < 0.0316 µM
IC50 (second compound 3.16 µM): < 0.0316 µM
IC50 (second compound 10 µM): < 0.0316 µM
viability, T/C [1]: 96.5%
viability, T/C [2]: 93.9%
viability, T/C [3]: 109%
viability, T/C [4]: 103%
viability, T/C [5]: 90.9%
viability, T/C [6]: 74.4%
viability, T/C [7]: 110%
viability, T/C [8]: 103%
viability, T/C [9]: 109%
viability, T/C [10]: 113%
viability, T/C [11]: 85.2%
viability, T/C [12]: 67.6%
viability, T/C [13]: 70.8%
viability, T/C [14]: 73.4%
viability, T/C [15]: 57.9%
viability, T/C [16]: 46.5%
viability, T/C [17]: 49.1%
viability, T/C [18]: 40.2%
viability, T/C [19]: 40.2%
viability, T/C [20]: 32.9%
viability, T/C [21]: 32.8%
viability, T/C [22]: 35.4%
viability, T/C [23]: 31.8%
viability, T/C [24]: 24.3%
viability, T/C [25]: 32%
viability, T/C [26]: 31.3%
viability, T/C [27]: 30.3%
viability, T/C [28]: 30.2%
viability, T/C [29]: 27.7%
viability, T/C [30]: 24%
viability, T/C [31]: 30.3%
viability, T/C [32]: 31.7%
viability, T/C [33]: 27.4%
viability, T/C [34]: 29.6%
viability, T/C [35]: 26.7%
viability, T/C [36]: 23.1%

COC1C=CCC(C)C(C)S(=O)(=O)NC(=O)c2ccc3c(c2)N(CC2CCC21)CC1(CCCc2cc(Cl)ccc21)CO3 (stereo not drawn) + CNC(=O)c1ccc(Nc2nc(OC3CCCC3)c3c(-c4ccc5nc(C)oc5c4)c[nH]c3n2)c(OC)c1
IC50 (second compound 0.0316 µM): 6.37 µM
IC50 (second compound 0.1 µM): 6.79 µM
IC50 (second compound 0.316 µM): 2.25 µM
IC50 (second compound 1 µM): < 0.0316 µM
IC50 (second compound 3.16 µM): < 0.0316 µM
IC50 (second compound 10 µM): < 0.0316 µM
viability, T/C [1]: 111%
viability, T/C [2]: 117%
viability, T/C [3]: 104%
viability, T/C [4]: 98.9%
viability, T/C [5]: 90.4%
viability, T/C [6]: 25.6%
viability, T/C [7]: 114%
viability, T/C [8]: 99.6%
viability, T/C [9]: 107%
viability, T/C [10]: 105%
viability, T/C [11]: 103%
viability, T/C [12]: 23%
viability, T/C [13]: 64.6%
viability, T/C [14]: 70.2%
viability, T/C [15]: 66.1%
viability, T/C [16]: 57%
viability, T/C [17]: 47.5%
viability, T/C [18]: 17.9%
viability, T/C [19]: 33.7%
viability, T/C [20]: 39%
viability, T/C [21]: 32.1%
viability, T/C [22]: 27.7%
viability, T/C [23]: 21.2%
viability, T/C [24]: 11%
viability, T/C [25]: 27.3%
viability, T/C [26]: 30.2%
viability, T/C [27]: 25.7%
viability, T/C [28]: 20.8%
viability, T/C [29]: 16.5%
viability, T/C [30]: 9.29%
viability, T/C [31]: 29.8%
viability, T/C [32]: 25.2%
viability, T/C [33]: 23.3%
viability, T/C [34]: 17.3%
viability, T/C [35]: 13.4%
viability, T/C [36]: 10.7%

Source: PubChem BioAssay AID2060606 (Molecular Pharmacology Branch, DTP, NCI, 2025)
